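Exposure lasted 48 hours, with cells grown in 96-well plates and compounds tested at five concentrations. Abbreviation: GI50, concentration required for 50% inhibition of growth.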 Activity calls are given as the source filed them. Cut-off read from the data, not from the text of the source: active = GI50 up to about 1.1 µM and inactive = higher.
Assays:
Experiment in all cases: inhibition of tumour cell growth, NCI panel, 48 h
DLD-1 = test system: DLD-1
DMS-273 = test system: DMS-273
LXFL 529 = test system: LXFL 529
M19-MEL = test system: M19-MEL
XF498 = test system: XF498
HOP-18 = test system: HOP-18
RXF 631 = test system: RXF 631
SNB-78 = test system: SNB-78
DMS-114 = test system: DMS-114

With COc1ccc(S(=O)(=O)N/N=C/CN2C(=O)c3ccccc3C2=O)cc1 the GI50 (DLD-1) was > 100 µM (inactive), the GI50 (DMS-273) was > 100 µM (inactive) and the GI50 (LXFL 529) was > 100 µM (inactive). For the same compound, the GI50 (M19-MEL) was > 100 µM (inactive) and the GI50 (XF498) was > 100 µM (inactive).
COC(=O)C1=C(c2cc(OC)c(OC)c(OC)c2)O[C@H](c2ccc3c(c2)OCO3)[C@H]1COC(C)=O was tested, and the GI50 (DLD-1) was 26.3 µM (inactive), the GI50 (DMS-273) was 26.6 µM (inactive) and the GI50 (HOP-18) was 26.7 µM (inactive). The GI50 (LXFL 529) was 20.3 µM (inactive), the GI50 (M19-MEL) was 20.7 µM (inactive) and the GI50 (RXF 631) was 42.3 µM (inactive). The GI50 (SNB-78) was 26.7 µM (inactive) and the GI50 (XF498) was 33.6 µM (inactive).
CCOC(=O)C(CCCNC(=O)OC(C)(C)C)N(Cc1ccc(OC)cc1OC)C(=O)CC(=O)CP(=O)(OCC)OCC (configuration not stated) was tested, and the GI50 (DLD-1) was > 100 µM (inactive), the GI50 (DMS-114) was 21 µM (inactive) and the GI50 (DMS-273) was > 100 µM (inactive). The GI50 (HOP-18) was > 100 µM (inactive), the GI50 (LXFL 529) was > 100 µM (inactive) and the GI50 (M19-MEL) was > 100 µM (inactive). For the same compound, the GI50 (RXF 631) was > 100 µM (inactive).
O=C1c2ccccc2N2OC3(N4CCCC4)CCCCC3C12c1ccccc1 (configuration not stated) was tested, and the GI50 (DLD-1) was 20 µM (inactive), the GI50 (DMS-114) was 15.2 µM (inactive) and the GI50 (DMS-273) was 17 µM (inactive). The GI50 (HOP-18) was > 100 µM (inactive), the GI50 (LXFL 529) was 14.5 µM (inactive) and the GI50 (M19-MEL) was 10.1 µM (inactive). For the same compound, the GI50 (SNB-78) was 16.6 µM (inactive) and the GI50 (XF498) was 22.4 µM (inactive).
CCn1c2ccccc2c2c(-c3ccccc3)cc3c(c21)C(=O)N(c1ccccc1)C3=O was tested, and the GI50 (DLD-1) was > 100 µM (inactive), the GI50 (DMS-114) was > 100 µM (inactive) and the GI50 (DMS-273) was 46.2 µM (inactive). For the same compound, the GI50 (LXFL 529) was > 100 µM (inactive), the GI50 (M19-MEL) was > 100 µM (inactive) and the GI50 (SNB-78) was > 100 µM (inactive). The GI50 (XF498) was > 100 µM (inactive).
In the case of CCOC(=O)CNC(SC)=C(C#N)C#N, the GI50 (DLD-1) is reported as > 100 µM (inactive), the GI50 (DMS-114) is reported as > 100 µM (inactive) and the GI50 (DMS-273) is reported as > 100 µM (inactive). The GI50 (LXFL 529) was > 100 µM (inactive), the GI50 (M19-MEL) was > 100 µM (inactive) and the GI50 (SNB-78) was > 100 µM (inactive). For the same compound, the GI50 (XF498) was > 100 µM (inactive).
For CCOC(=O)C(C(=O)OCC)=c1sc(=C(C(=O)OCC)C(=O)OCC)s1, the GI50 (DLD-1) was > 100 µM (inactive), the GI50 (DMS-273) was > 100 µM (inactive) and the GI50 (LXFL 529) was > 100 µM (inactive). The GI50 (M19-MEL) was > 100 µM (inactive) and the GI50 (SNB-78) was > 100 µM (inactive).
In the case of CC(=O)OCc1c(O)nc2c(c1O)-c1ccccc1CC2, the GI50 (DLD-1) is reported as 71.9 µM (inactive), the GI50 (DMS-114) is reported as 67.8 µM (inactive) and the GI50 (DMS-273) is reported as 49.2 µM (inactive). The GI50 (HOP-18) was 129 µM (inactive), the GI50 (LXFL 529) was 60 µM (inactive) and the GI50 (M19-MEL) was 54.3 µM (inactive). The GI50 (RXF 631) was 69.5 µM (inactive) and the GI50 (XF498) was 56.5 µM (inactive).
In the case of COc1cc(/C=C2\CCc3ccccc3C2=O)cc(OC)c1OC, the GI50 (DLD-1) is reported as 13.8 µM (inactive), the GI50 (DMS-114) is reported as 12.5 µM (inactive) and the GI50 (DMS-273) is reported as 11.9 µM (inactive). For the same compound, the GI50 (HOP-18) was 13.6 µM (inactive), the GI50 (LXFL 529) was 15.2 µM (inactive) and the GI50 (M19-MEL) was 15.9 µM (inactive). The GI50 (RXF 631) was 22.4 µM (inactive), the GI50 (SNB-78) was 24 µM (inactive) and the GI50 (XF498) was 17.9 µM (inactive).
For Cc1[nH]c2c(C)cccc2c1C1Cc2ccccc2N1 (configuration not stated), the GI50 (DLD-1) was 28.8 µM (inactive), the GI50 (DMS-114) was 18.2 µM (inactive) and the GI50 (HOP-18) was 17.8 µM (inactive). The GI50 (LXFL 529) was 17.6 µM (inactive), the GI50 (M19-MEL) was 21.7 µM (inactive) and the GI50 (XF498) was 21.1 µM (inactive).
CCCCCCCCCCCCCC(=O)NCC(OCC)OCC was tested, and the GI50 (DLD-1) was > 100 µM (inactive), the GI50 (DMS-114) was > 100 µM (inactive) and the GI50 (DMS-273) was > 100 µM (inactive). The GI50 (HOP-18) was > 100 µM (inactive), the GI50 (LXFL 529) was > 100 µM (inactive) and the GI50 (M19-MEL) was > 100 µM (inactive). For the same compound, the GI50 (SNB-78) was > 100 µM (inactive) and the GI50 (XF498) was > 100 µM (inactive).
For O=C(CCc1nnc2s/c(=C\c3ccc(Cl)cc3Cl)c(=O)n12)Nc1cc(Cl)c(Cl)cc1Cl, the GI50 (DLD-1) was > 10 µM (inactive), the GI50 (DMS-114) was > 10 µM (inactive) and the GI50 (DMS-273) was > 10 µM (inactive). For the same compound, the GI50 (HOP-18) was > 10 µM (inactive), the GI50 (LXFL 529) was > 10 µM (inactive) and the GI50 (M19-MEL) was > 10 µM (inactive). For the same compound, the GI50 (RXF 631) was 71.4 µM (inactive), the GI50 (SNB-78) was 84.1 µM (inactive) and the GI50 (XF498) was > 10 µM (inactive).
In the case of COc1ccc(C(Cc2cc(OC)c(OC)c(OC)c2)C(=O)O)cc1 (configuration not stated), the GI50 (DLD-1) is reported as 51.1 µM (inactive), the GI50 (DMS-114) is reported as 41 µM (inactive) and the GI50 (DMS-273) is reported as 52.5 µM (inactive). The GI50 (HOP-18) was > 100 µM (inactive), the GI50 (M19-MEL) was 45.7 µM (inactive) and the GI50 (RXF 631) was > 100 µM (inactive). For the same compound, the GI50 (SNB-78) was 60.1 µM (inactive) and the GI50 (XF498) was 40.5 µM (inactive).
COc1ccc(NC(=O)c2oc3cc(O)ccc3c(=O)c2C)c([N+](=O)[O-])c1 was tested, and the GI50 (DLD-1) was > 100 µM (inactive), the GI50 (DMS-114) was > 100 µM (inactive) and the GI50 (DMS-273) was > 100 µM (inactive). For the same compound, the GI50 (HOP-18) was > 100 µM (inactive), the GI50 (LXFL 529) was > 100 µM (inactive) and the GI50 (M19-MEL) was > 100 µM (inactive). The GI50 (SNB-78) was > 100 µM (inactive) and the GI50 (XF498) was > 100 µM (inactive).
With COCC1N=C(c2cc(OC)c(OC)c(OC)c2-c2cc3c(cc2C2OCCCO2)OCO3)O[C@H]1c1ccccc1 (some centres not stated) the GI50 (DLD-1) was > 100 µM (inactive), the GI50 (DMS-114) was > 100 µM (inactive) and the GI50 (DMS-273) was > 100 µM (inactive). For the same compound, the GI50 (M19-MEL) was > 100 µM (inactive).
In the case of O=c1c2cc3c(cc2c2cccc4c2n1CCC4)OCO3, the GI50 (DLD-1) is reported as 26.8 µM (inactive), the GI50 (DMS-273) is reported as 28.1 µM (inactive) and the GI50 (HOP-18) is reported as 49.5 µM (inactive). The GI50 (LXFL 529) was 37.5 µM (inactive), the GI50 (M19-MEL) was 86.7 µM (inactive) and the GI50 (SNB-78) was 68.5 µM (inactive).
Cc1c2ccncc2cc2c1sc1ccncc12 was tested, and the GI50 (DLD-1) was 4.18 µM (inactive), the GI50 (DMS-114) was 6.21 µM (inactive) and the GI50 (DMS-273) was 2.09 µM (inactive). The GI50 (HOP-18) was 7.71 µM (inactive), the GI50 (LXFL 529) was 6.68 µM (inactive) and the GI50 (M19-MEL) was 3.94 µM (inactive). The GI50 (RXF 631) was 2.25 µM (inactive), the GI50 (SNB-78) was 13 µM (inactive) and the GI50 (XF498) was 12.1 µM (inactive).
For Cc1c(CC/C(=N\Nc2ccc([N+](=O)[O-])cc2[N+](=O)[O-])c2ccccc2)c2ccccc2n1C, the GI50 (DLD-1) was > 100 µM (inactive), the GI50 (DMS-114) was > 100 µM (inactive) and the GI50 (DMS-273) was > 100 µM (inactive). The GI50 (LXFL 529) was > 100 µM (inactive), the GI50 (M19-MEL) was > 100 µM (inactive) and the GI50 (RXF 631) was > 100 µM (inactive). For the same compound, the GI50 (SNB-78) was > 100 µM (inactive) and the GI50 (XF498) was > 100 µM (inactive).
In the case of CN1CCc2ccccc2C(C(=O)c2ccc3c(c2)OCO3)C1=O (configuration not stated), the GI50 (DLD-1) is reported as > 100 µM (inactive), the GI50 (DMS-114) is reported as 39.3 µM (inactive) and the GI50 (DMS-273) is reported as > 100 µM (inactive). For the same compound, the GI50 (HOP-18) was > 100 µM (inactive), the GI50 (LXFL 529) was > 100 µM (inactive) and the GI50 (M19-MEL) was > 100 µM (inactive). The GI50 (RXF 631) was > 100 µM (inactive) and the GI50 (XF498) was 70.8 µM (inactive).
With CCOC(=O)C(=O)Nc1nc2ccc(C)cc2s1 the GI50 (DLD-1) was > 100 µM (inactive), the GI50 (DMS-114) was > 100 µM (inactive) and the GI50 (DMS-273) was > 100 µM (inactive). For the same compound, the GI50 (LXFL 529) was > 100 µM (inactive), the GI50 (M19-MEL) was > 100 µM (inactive) and the GI50 (RXF 631) was > 100 µM (inactive). The GI50 (SNB-78) was 87.7 µM (inactive) and the GI50 (XF498) was > 100 µM (inactive).
For CCOC(=O)NNC(=O)NC12CC3CC(CC(C3)C1)C2, the GI50 (DLD-1) was > 100 µM (inactive), the GI50 (DMS-114) was > 100 µM (inactive) and the GI50 (DMS-273) was > 100 µM (inactive). For the same compound, the GI50 (HOP-18) was > 100 µM (inactive), the GI50 (LXFL 529) was > 100 µM (inactive) and the GI50 (M19-MEL) was > 100 µM (inactive). The GI50 (SNB-78) was > 100 µM (inactive) and the GI50 (XF498) was > 100 µM (inactive).
COc1cc2noc(-c3ccccc3)c2cc1OC was tested, and the GI50 (DLD-1) was 64 µM (inactive), the GI50 (DMS-114) was 35.9 µM (inactive) and the GI50 (DMS-273) was 39.6 µM (inactive). The GI50 (HOP-18) was > 100 µM (inactive), the GI50 (LXFL 529) was 68.4 µM (inactive) and the GI50 (M19-MEL) was 89.5 µM (inactive). For the same compound, the GI50 (RXF 631) was 20.4 µM (inactive) and the GI50 (SNB-78) was 73.5 µM (inactive).
For C/C(=N\NC(=S)N1CCCCCC1)c1nccnc1C, the GI50 (DLD-1) was 1.42 µM (inactive), the GI50 (DMS-114) was < 0.01 µM (active) and the GI50 (DMS-273) was < 0.01 µM (active). For the same compound, the GI50 (HOP-18) was 0.617 µM (active), the GI50 (LXFL 529) was < 0.01 µM (active) and the GI50 (M19-MEL) was 0.174 µM (active). The GI50 (SNB-78) was 0.885 µM (active) and the GI50 (XF498) was 1.43 µM (inactive).
COC(=O)/C=C1/CCC(C(=O)OC)N1 (configuration not stated) was tested, and the GI50 (DLD-1) was > 100 µM (inactive), the GI50 (DMS-114) was > 100 µM (inactive) and the GI50 (DMS-273) was > 100 µM (inactive). The GI50 (LXFL 529) was > 100 µM (inactive), the GI50 (M19-MEL) was > 100 µM (inactive) and the GI50 (SNB-78) was > 100 µM (inactive). For the same compound, the GI50 (XF498) was > 100 µM (inactive).
